Non-standard residues stand in square brackets, D forms with d. No end group written: not given here. *: point of attachment. FITC = O=C1OC2(c3ccc(O)cc3Oc3cc(O)ccc32)c2ccc(NC(=S)*)cc21; Sar = CNCC(=O)O
tested on: 5-helix bundle (5HB) protein mimicking hRSV fusion protein F; experiment: 5HB-based competitive fluorescence polarization (FP) binding assay; set-up: species or system human respiratory syncytial virus (hRSV); details: 200 µM peptide; inhibition of Fl-C35 tracer (5 nM) binding to 5HB (20 nM); FP buffer 20 mM PBS pH 7.4, 500 mM NaCl, 0.01% Tween-20, 0.05 mg/ml bovine gamma globulin; 1 h + 30 min at room temperature; ex 485/em 530 nm
Protocol: Competitive FP binding assays of the C20 derivatives were carried out as previously described. Briefly, a 5-helix bundle (5HB) protein was designed to mimic a post-fusion structure of fusion protein F (6-helix bundle) and provide a specific binding site for screening potential human respiratory syncytial virus (hRSV) entry inhibitors. Using a 5HB protein as a target protein and a fluorescently labeled 35 amino acid-long peptide (Fl-C35, sequence shown in Table S1) as a tracer, we performed a competitive FP assay to evaluated the binding affinity of each C20 analogue prepared in this study. In each well of a black 96-well plate (Corning Inc. Lowell, MA, USA), 20 nM of the 5HB with increasing concentrations of each peptomer in FP buffer (20 mM PBS at pH 7.4, 500 mM NaCl, 0.01% (v/v) Tween-20, and 0.05 mg/ml bovine gamma globulin) in a final volume of 185 µL was incubated for 1h at room temperature. Fl-C35 was then added to a final concentration of 5 nM followed by 30 min incubation at room temperature. The FP responses were monitored using a Synergy4 plate reader (Biotek, Winooski, VT, USA) with an excitation wavelength of 485 nm and an emission wavelength of 530 nm. The percentage of inhibition (% Inhibition) was calculated from the equation: % inhibition = 100×[1-(mP-mPf)/(mPb-mPf)]. Unbound Fl-C35 (mPf), bound Fl-C35 (mPb) and the bound inhibitor to the 5HB (mP) are used accordingly.
Sample preparation for FP measurements.

| Substance | % Inhibition at 200 µM |
| --- | --- |
| ASQVNEKINQSLAFIRKSDE [Peptide A1, alanine-substituted C20 peptide] | 15.45% |
| IAQVNEKINQSLAFIRKSDE [Peptide A2, alanine-substituted C20 peptide] | 23.63% |
| IPQVNEKINQSLAFIRKSDE [Peptide P2, proline-substituted C20 peptide] | 23.15% |
| ISAVNEKINQSLAFIRKSDE [Peptide A3, alanine-substituted C20 peptide] | 27.27% |
| ISPVNEKINQSLAFIRKSDE [Peptide P3, proline-substituted C20 peptide] | 14.81% |
| ISQANEKINQSLAFIRKSDE [Peptide A4, alanine-substituted C20 peptide] | 40.00% |
| ISQPNEKINQSLAFIRKSDE [Peptide P4, proline-substituted C20 peptide] | 12.96% |
| ISQVAEKINQSLAFIRKSDE [Peptide A5, alanine-substituted C20 peptide] | 25.90% |
| ISQVNAKINQSLAFIRKSDE [Peptide A6, alanine-substituted C20 peptide] | 89.09% |
| ISQVNEAINQSLAFIRKSDE [Peptide A7, alanine-substituted C20 peptide] | 100.00% |
| ISQVNEKANQSLAFIRKSDE [Peptide A8, alanine-substituted C20 peptide] | 13.63% |
| ISQVNEKIAQSLAFIRKSDE [Peptide A9, alanine-substituted C20 peptide] | 30.90% |
| ISQVNEKINASLAFIRKSDE [Peptide A10, alanine-substituted C20 peptide] | 11.36% |
| ISQVNEKINPSLAFIRKSDE [Peptide P10, proline-substituted C20 peptide] | 9.26% |
| ISQVNEKINQALAFIRKSDE [Peptide A11, alanine-substituted C20 peptide] | 33.18% |
| ISQVNEKINQPLAFIRKSDE [Peptide P11, proline-substituted C20 peptide] | 9.26% |
| ISQVNEKINQSAAFIRKSDE [Peptide A12, alanine-substituted C20 peptide] | 43.63% |
| ISQVNEKINQSLAAIRKSDE [Peptide A14, alanine-substituted C20 peptide] | 25.00% |
| ISQVNEKINQSLAFARKSDE [Peptide A15, alanine-substituted C20 peptide] | 21.36% |
| ISQVNEKINQSLAFIAKSDE [Peptide A16, alanine-substituted C20 peptide] | 53.63% |
| ISQVNEKINQSLAFIPKSDE [Peptide P16, proline-substituted C20 peptide] | 4.63% |

| Substance | % Inhibition at 200 µM |
| --- | --- |
| ISQVNEKINQSLAFIRASDE [Peptide A17, alanine-substituted C20 peptide] | 100.00% |
| ISQVNEKINQSLAFIRKADE [Peptide A18, alanine-substituted C20 peptide] | 36.81% |
| ISQVNEKINQSLAFIRKPDE [Peptide P18, proline-substituted C20 peptide] | 0.93% |
| ISQVNEKINQSLAFIRKSAE [Peptide A19, alanine-substituted C20 peptide] | 31.81% |
| ISQVNEKINQSLAFIRKSDA [Peptide A20, alanine-substituted C20 peptide] | 29.09% |
| ISQVNEKINQSLAFIRKSDE [Peptide A13, alanine scan entry for position 13] | 100.00% |
| ISQVNEKINQSLAFIRKSDE [Peptide C20, 20 amino acid-long peptide derived from the 6th helix of hRSV fusion protein F] | 100% |
| ISQVNEKINQSLAFIRKSDP [Peptide P20, proline-substituted C20 peptide] | 31.48% |
| ISQVNEKINQSLAFIRKSD[Sar] [Sar20, sarcosine-substituted C20 peptide] | 100.00% |
| ISQVNEKINQSLAFIRKSPE [Peptide P19, proline-substituted C20 peptide] | 84.26% |
| ISQVNEKINQSLAFIRKS[Sar]E [Sar19, sarcosine-substituted C20 peptide] | 59.26% |
| ISQVNEKINQSLAFIRK[Sar]DE [Sar18, sarcosine-substituted C20 peptide] | 21.30% |
| ISQVNEKINQSLAFIRPSDE [Peptide P17, proline-substituted C20 peptide] | 6.48% |
| ISQVNEKINQSLAFIR[Sar]SDE [Sar17, sarcosine-substituted C20 peptide] | 84.26% |
| ISQVNEKINQSLAFI[Sar]KSDE [Sar16, sarcosine-substituted C20 peptide] | 0.00% |
| ISQVNEKINQSLAFPRKSDE [Peptide P15, proline-substituted C20 peptide] | 4.63% |
| ISQVNEKINQSLAF[Sar]RKSDE [Sar15, sarcosine-substituted C20 peptide] | 30.56% |
| ISQVNEKINQSLAPIRKSDE [Peptide P14, proline-substituted C20 peptide] | 13.89% |
| ISQVNEKINQSLA[Sar]IRKSDE [Sar14, sarcosine-substituted C20 peptide] | 4.63% |
| ISQVNEKINQSLPFIRKSDE [Peptide P13, proline-substituted C20 peptide] | 10.19% |
| ISQVNEKINQSL[Sar]FIRKSDE [Sar13, sarcosine-substituted C20 peptide] | 4.63% |

| Substance | % Inhibition at 200 µM |
| --- | --- |
| ISQVNEKINQSPAFIRKSDE [Peptide P12, proline-substituted C20 peptide] | 22.22% |
| ISQVNEKINQS[Sar]AFIRKSDE [Sar12, sarcosine-substituted C20 peptide] | 7.41% |
| ISQVNEKINQ[Sar]LAFIRKSDE [Sar11, sarcosine-substituted C20 peptide] | 13.89% |
| ISQVNEKIN[Sar]SLAFIRKSDE [Sar10, sarcosine-substituted C20 peptide] | 21.30% |
| ISQVNEKIPQSLAFIRKSDE [Peptide P9, proline-substituted C20 peptide] | 33.33% |
| ISQVNEKI[Sar]QSLAFIRKSDE [Sar9, sarcosine-substituted C20 peptide] | 13.89% |
| ISQVNEKPNQSLAFIRKSDE [Peptide P8, proline-substituted C20 peptide] | 11.11% |
| ISQVNEK[Sar]NQSLAFIRKSDE [Sar8, sarcosine-substituted C20 peptide] | 26.85% |
| ISQVNE[Sar]INQSLAFIRKSDE [Sar7, sarcosine-substituted C20 peptide] | 100.00% |
| ISQVNPKINQSLAFIRKSDE [Peptide P6, proline-substituted C20 peptide] | 26.85% |
| ISQVN[Sar]KINQSLAFIRKSDE [Sar6, sarcosine-substituted C20 peptide] | 108.33% |
| ISQVPEKINQSLAFIRKSDE [Peptide P5, proline-substituted C20 peptide] | 34.26% |
| ISQV[Sar]EKINQSLAFIRKSDE [Sar5, sarcosine-substituted C20 peptide] | 23.15% |
| ISQ[Sar]NEKINQSLAFIRKSDE [Sar4, sarcosine-substituted C20 peptide] | 1.85% |
| IS[Sar]VNEKINQSLAFIRKSDE [Sar3, sarcosine-substituted C20 peptide] | 11.11% |
| I[Sar]QVNEKINQSLAFIRKSDE [Sar2, sarcosine-substituted C20 peptide] | 22.22% |
| PSQVNEKINQSLAFIRKSDE [Peptide P1, proline-substituted C20 peptide] | 26.85% |
| [Sar]SQVNEKINQSLAFIRKSDE [Sar1, sarcosine-substituted C20 peptide] | 15.74% |
| {FITC}-YDPLVFPSDEFDASISQVNEKINQSLAFIRKSDEL [Fl-C35, fluorescently labeled 35 amino acid-long peptide used as tracer, reference compound] | 100% |

Reference: PMC3605428, “A Readily Applicable Strategy to Convert Peptides to Peptoid-based Therapeutics” (PLoS ONE, 2013)
